Measurements published in ChEMBL document CHEMBL1201861, “Genomics of Drug Sensitity in Cancer screening data, Wellcome Trust Sanger Institute”.
pIC50: −log10 of the molar value.

Key:
Experiment in all cases: cells
[1] = test system: CHP-212; format: functional, cell-based; conditions: Homo sapiens
Description: SANGER: Inhibition of human CHP-212 cell growth in a cell viability assay.

[2] = test system: A204; format: functional, cell-based; conditions: Homo sapiens;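 also: growth inhibition of human A204 cells, read out with a cell viability assay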
Description: SANGER: Inhibition of human A204 cell growth in a cell viability assay.

[3] = test system: SCC-25; format: functional, cell-based; conditions: Homo sapiens;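 also: growth inhibition of SCC-25 cells, measured with a cell viability assay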
Description: SANGER: Inhibition of human SCC-25 cell growth in a cell viability assay.

[4] = test system: CAKI-1; format: functional, cell-based; conditions: Homo sapiens;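 also: growth inhibition of CAKI-1 cells, measured by a cell viability assay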
Description: SANGER: Inhibition of human CAKI-1 cell growth in a cell viability assay.

[5] = test system: VM-CUB-1; format: functional, cell-based; conditions: Homo sapiens;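 also: cell viability assay measuring growth inhibition of the human VM-CUB-1 cell line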
Description: SANGER: Inhibition of human VM-CUB-1 cell growth in a cell viability assay.

[6] = test system: BHT-101; format: functional, cell-based; conditions: Homo sapiens
Description: SANGER: Inhibition of human BHT-101 cell growth in a cell viability assay.

[7] = test system: SW780; format: functional, cell-based; conditions: Homo sapiens;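 also: growth inhibition of the cells, read out with a cell viability assay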
Description: SANGER: Inhibition of human SW780 cell growth in a cell viability assay.

[8] = test system: EFM-19; format: functional, cell-based; conditions: Homo sapiens;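 also: growth inhibition of human EFM-19 cells, measured in a cell viability assay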
Description: SANGER: Inhibition of human EFM-19 cell growth in a cell viability assay.

[9] = test system: NCI-H2030; format: functional, cell-based; conditions: Homo sapiens;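 also: growth inhibition of human NCI-H2030 cells, read out by a cell viability assay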
Description: SANGER: Inhibition of human NCI-H2030 cell growth in a cell viability assay.

[10] = test system: 8505C; format: functional, cell-based; conditions: Homo sapiens
Description: SANGER: Inhibition of human 8505C cell growth in a cell viability assay.

[11] = test system: NUGC-3; format: functional, cell-based; conditions: Homo sapiens;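 also: growth inhibition of human NUGC-3 cells, read out with a cell viability assay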
Description: SANGER: Inhibition of human NUGC-3 cell growth in a cell viability assay.

[12] = test system: LCLC-97TM1; format: functional, cell-based; conditions: Homo sapiens;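 also: cell viability assay measuring growth inhibition of human LCLC-97TM1 cells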
Description: SANGER: Inhibition of human LCLC-97TM1 cell growth in a cell viability assay.

[13] = test system: EFO-21; format: functional, cell-based; conditions: Homo sapiens;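 also: growth inhibition of EFO-21 cells measured with a viability assay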
Description: SANGER: Inhibition of human EFO-21 cell growth in a cell viability assay.

[14] = test system: S-117; format: functional, cell-based; conditions: Homo sapiens
Description: SANGER: Inhibition of human S-117 cell growth in a cell viability assay.

[15] = test system: HuTu80; format: functional, cell-based, Homo sapiens, HUTU-80; conditions: Homo sapiens, HuTu80;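 also: growth inhibition of HuTu80 human cells, determined with a cell viability readout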
Description: SANGER: Inhibition of human HUTU-80 cell growth in a cell viability assay.

[16] = test system: KYSE-70 cell line; format: functional, cell-based; conditions: Homo sapiens;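 also: cell viability assay read-out, with IC50 expressing suppression of KYSE-70 cell growth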
Description: SANGER: Inhibition of human KYSE-70 cell growth in a cell viability assay.

[17] = test system: NCI-H2342; format: functional, cell-based; conditions: Homo sapiens;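 also: growth inhibition of the cancer cell line, determined with a cell viability assay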
Description: SANGER: Inhibition of human NCI-H2342 cell growth in a cell viability assay.

[18] = test system: MDA-MB-231; format: functional, cell-based; conditions: Homo sapiens
Description: SANGER: Inhibition of human MDA-MB-231 cell growth in a cell viability assay.

[19] = test system: NCI-H2087; format: functional, cell-based; conditions: Homo sapiens;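 also: growth inhibition determined with a cell viability readout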
Description: SANGER: Inhibition of human NCI-H2087 cell growth in a cell viability assay.

[20] = test system: HCT-116; format: functional, cell-based; conditions: Homo sapiens
Description: SANGER: Inhibition of human HCT-116 cell growth in a cell viability assay.

[21] = test system: NCI-H292; format: functional, cell-based; conditions: Homo sapiens;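 also: growth inhibition of NCI-H292 cells, read out with a cell viability assay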
Description: SANGER: Inhibition of human NCI-H292 cell growth in a cell viability assay.

[22] = test system: SW1990; format: functional, cell-based; conditions: Homo sapiens;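 also: cell growth inhibition determined with a viability assay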
Description: SANGER: Inhibition of human SW1990 cell growth in a cell viability assay.

[23] = test system: HuCCT-1; format: functional, cell-based, HuCCT1; conditions: Homo sapiens;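 also: growth inhibition of HuCCT-1 cells, read out by a cell viability assay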
Description: SANGER: Inhibition of human HuCCT1 cell growth in a cell viability assay.

[24] = test system: DMS-273; format: functional, cell-based; conditions: Homo sapiens
Description: SANGER: Inhibition of human DMS-273 cell growth in a cell viability assay.

[25] = test system: NCI-H1755; format: functional, cell-based; conditions: Homo sapiens;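 also: cell viability readout used to measure growth inhibition of NCI-H1755 cells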
Description: SANGER: Inhibition of human NCI-H1755 cell growth in a cell viability assay.

[26] = test system: DoTc2-4510; format: functional, cell-based; conditions: Homo sapiens
[27] = test system: EFO-27; format: functional, cell-based; conditions: Homo sapiens;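 also: growth inhibition of EFO-27 cells, read out with a cell viability assay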
Description: SANGER: Inhibition of human EFO-27 cell growth in a cell viability assay.

[28] = test system: HuO-3N1; format: functional, cell-based; conditions: Homo sapiens;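 also: cell viability readout used to measure how strongly compounds suppress proliferation of human HuO-3N1 cells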
Description: SANGER: Inhibition of human HuO-3N1 cell growth in a cell viability assay.

[29] = test system: HSC-4; format: functional, cell-based; conditions: Homo sapiens;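 also: growth inhibition of human HSC-4 cells, read out with a cell viability assay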
Description: SANGER: Inhibition of human HSC-4 cell growth in a cell viability assay.

[30] = test system: GCT; format: functional, cell-based; conditions: Homo sapiens;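 also: GCT cell line proliferation inhibition, read out with a cell viability assay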
Description: SANGER: Inhibition of human GCT cell growth in a cell viability assay.

[31] = test system: EW-24; format: functional, cell-based, Homo sapiens; conditions: Homo sapiens, EW-24;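 also: human EW-24 cancer cell line, growth inhibition read out via a cell viability assay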
Description: SANGER: Inhibition of human EW-24 cell growth in a cell viability assay.

[32] = test system: SNU-387; format: functional, cell-based; conditions: Homo sapiens
Description: SANGER: Inhibition of human SNU-387 cell growth in a cell viability assay.

[33] = test system: G-402; format: functional, cell-based; conditions: Homo sapiens
Description: SANGER: Inhibition of human G-402 cell growth in a cell viability assay.

[34] = test system: HT-29; format: functional, cell-based; conditions: Homo sapiens;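 also: growth inhibition of human HT-29 cells, read out by a cell viability assay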
Description: SANGER: Inhibition of human HT-29 cell growth in a cell viability assay.

[35] = test system: UMC-11; format: functional, cell-based; conditions: Homo sapiens;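 also: growth inhibition of UMC-11 cells, read out with a cell viability assay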
Description: SANGER: Inhibition of human UMC-11 cell growth in a cell viability assay.

[36] = test system: D-392MG; format: functional, cell-based; conditions: Homo sapiens
[37] = test system: KYSE-410; format: functional, cell-based; conditions: Homo sapiens;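 also: growth inhibition of KYSE-410 cells, measured through a cell viability readout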
Description: SANGER: Inhibition of human KYSE-410 cell growth in a cell viability assay.

[38] = test system: HMV-2 cell line; format: functional, cell-based; conditions: Homo sapiens;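 also: growth inhibition of HMV-II cells, read out with a cell viability assay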
Description: SANGER: Inhibition of human HMV-II cell growth in a cell viability assay.

[39] = test system: MFE-280; format: functional, cell-based; conditions: Homo sapiens;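 also: growth inhibition of MFE-280 cells, determined with a cell viability readout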
Description: SANGER: Inhibition of human MFE-280 cell growth in a cell viability assay.

[40] = test system: RD; format: functional, cell-based; conditions: Homo sapiens
Description: SANGER: Inhibition of human RD cell growth in a cell viability assay.

[41] = test system: A-427; format: functional, cell-based; conditions: Homo sapiens;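 also: growth inhibition of human A-427 cells, read out by a cell viability assay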
Description: SANGER: Inhibition of human A427 cell growth in a cell viability assay.

[42] = test system: NCI-H2405; format: functional, cell-based; conditions: Homo sapiens;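 also: growth inhibition of the human cell line, read out with a cell viability assay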
Description: SANGER: Inhibition of human NCI-H2405 cell growth in a cell viability assay.

[43] = test system: SW48; format: functional, cell-based; conditions: Homo sapiens;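 also: growth inhibition of SW48 cells, read out with a cell viability assay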
Description: SANGER: Inhibition of human SW48 cell growth in a cell viability assay.

[44] = test system: COR-L105; format: functional, cell-based; conditions: Homo sapiens;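 also: cell growth inhibition determined with a viability assay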
Description: SANGER: Inhibition of human COR-L105 cell growth in a cell viability assay.

[45] = test system: T98G; format: functional, cell-based; conditions: Homo sapiens;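 also: growth inhibition of T98G cells, read out by a cell viability assay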
Description: SANGER: Inhibition of human T98G cell growth in a cell viability assay.

## CC1=C(/C=C/C(C)=C/C=C/C(C)=C/C(=O)O)C(C)(C)CCC1 [TRETINOIN]
[1]
  pIC50: < 5.00
[2]
  pIC50: < 5.00
[3]
  pIC50: < 5.00
[4]
  pIC50: < 5.00
[5]
  pIC50: < 5.00
[6]
  pIC50: < 5.00
[7]
  pIC50: < 5.00
[8]
  pIC50: < 5.00
[9]
  pIC50: < 5.00
[10]
  pIC50: < 5.00
[11]
  pIC50: < 5.00
[12]
  pIC50: < 5.00
[13]
  pIC50: < 5.00
[14]
  pIC50: < 5.00
[15]
  pIC50: < 5.00
[16]
  pIC50: < 5.00
[17]
  pIC50: < 5.00
[18]
  pIC50: < 5.00
[19]
  pIC50: < 5.00
[20]
  pIC50: < 5.00
[21]
  pIC50: < 5.00
[22]
  pIC50: < 5.00
[23]
  pIC50: < 5.00
[24]
  pIC50: < 5.00
[25]
  pIC50: < 5.00
[26]
  pIC50: < 5.00
[27]
  pIC50: < 5.00
[28]
  pIC50: 6.08
[29]
  pIC50: < 5.00
[30]
  pIC50: < 5.00
[31]
  pIC50: < 5.00
[32]
  pIC50: < 5.00
[33]
  pIC50: < 5.00
[34]
  pIC50: < 5.00
[35]
  pIC50: < 5.00
[36]
  pIC50: < 5.00
[37]
  pIC50: < 5.00
[38]
  pIC50: < 5.00
[39]
  pIC50: < 5.00
[40]
  pIC50: < 5.00
[41]
  pIC50: < 5.00
[42]
  pIC50: < 5.00
[43]
  pIC50: < 5.00
[44]
  pIC50: < 5.00
[45]
  pIC50: < 5.00
